# Source: PMC8202924, “Emodepside targets SLO-1 channels of Onchocerca ochengi and induces broad anthelmintic effects in a bovine model of onchocerciasis” (PLoS Pathogens, 2021)
# Test system: Onchocerca ochengi adult worms in nodules
# Assay: Histopathology of nodules, worm integrity scores after Striebel
# Type: in vivo
# Design: key to Cumulative histopathological score, representative section: sum of 5 organ grades: 5 = healthy, 15 = max damage, 16 = debris/none
# Conditions: MRSM
# Text: Nodules for histopathology (n = 72) were collected up to day 290, after which few were available in the melarsomine (MRSM) group. For consistency, nodules were taken from the same three animals in each experimental group at each timepoint. Formalin-fixed nodules were embedded in paraffin, sectioned, and stained with hematoxylin and eosin or Giemsa as previously described or with Lendrum’s carbol chromotrope to specifically stain eosinophils.
# Histological sections of nodules were scored by a single observer blinded to treatment group using the form proposed by Striebel, which was developed based on observations of O. volvulus (human) and Onchocerca gibsoni (bovine) nodules. In the current study, O. ochengi nodules were graded by applying a similar system in which the integrity of five structures or organs (cuticle, hypodermis, longitudinal muscle, pseudocoelomic cavity and gut) were classified through microscopical assessment of specific anatomical features (e.g., vacuoles in the hypodermis or host cells visible in the pseudocoelomic cavity) according to the categories in Table A in S1 Text. These grades were used to assign a pathology score for each aspect of parasite anatomy examined. Scores for all five structures or organs were then added together to produce a cumulative overall score, with a minimum score of 5 for parasite sections judged to be healthy across all five structures or organs. Since parasite sections showing extensive damage across all five anatomical regions could score a maximum of 15, sections containing cuticular debris only, or where parasites were unidentifiable in the section, were allocated a total score of 16. Where sections of male worms were present in the nodule these were scored separately to the females. Some sections contained more than one conjoined nodule. In these cases, females were also scored and recorded individually.
# The effect of different treatments relative to either (a) no treatment controls or (b) pre-treatment observations of parasite integrity was analyzed using linear mixed effects models with the nonlinear mixed effects model package in R [63, 64]. Overall scores for parasite integrity were modelled as the response variable compared with (a) treatment groups for each timepoint and (b) different timepoints for each respective treatment group. In both cases, animal identity was modelled as a random effect to account for repeat observations taken from the same individual, and results were adjusted using a post-hoc Bonferroni correction for multiple comparisons. Similarly, to assess the effect of different treatments on cellular infiltrates over time, total PMN or eosinophil counts per high-power field and eosinophils as a percentage of the total PMN population were each modelled as […] variables compared with (a) treatment groups for each timepoint and (b) different timepoints for each respective treatment group.
# [1] = 4 mg/kg every other day for 3 days, day 90
# [2] = 4 mg/kg every other day for 3 days, day 180
# [3] = 4 mg/kg every other day for 3 days, day 290
smiles,measurement,setting,value
NCCS[As](SCCN)c1ccc(Nc2nc(N)nc(N)n2)cc1 [melarsomine],Cumulative pathology scores of worm sections,"4 mg/kg every other day for 3 days, all post-treatment timepoints, P <0.05",significantly higher pathology scores than PCBO
same,"Cumulative histopathological worm score, mixed-effects coefficient (SE) vs placebo",[1],8.00 (2.01)
same,"Cumulative histopathological worm score, mixed-effects coefficient (SE) vs pre-treatment (day 1)",[1],9.45 (1.81)
same,"Degenerate nodules (no parasite sections or only cuticular fragments), of three nodules",[1],1
same,"Mean histopathological score, cuticle",[1],3.00
same,"Mean histopathological score, gut",[1],3.33
same,"Mean histopathological score, hypodermis",[1],3.33
same,"Mean histopathological score, longitudinal muscle",[1],2.67
same,"Mean histopathological score, pseudocoleomic cavity",[1],3.33
same,"Cumulative histopathological worm score, mixed-effects coefficient (SE) vs placebo",[2],7.31 (2.41)
same,"Cumulative histopathological worm score, mixed-effects coefficient (SE) vs pre-treatment (day 1)",[2],8.12 (1.81)
same,"Degenerate nodules (no parasite sections or only cuticular fragments), of three nodules",[2],2
same,"Mean histopathological score, cuticle",[2],3.33
same,"Mean histopathological score, gut",[2],3.00
same,"Mean histopathological score, hypodermis",[2],3.00
same,"Mean histopathological score, longitudinal muscle",[2],3.00
same,"Mean histopathological score, pseudocoleomic cavity",[2],3.33
same,"Cumulative histopathological worm score, mixed-effects coefficient (SE) vs placebo",[3],8.67 (2.97)
same,"Cumulative histopathological worm score, mixed-effects coefficient (SE) vs pre-treatment (day 1)",[3],11.11 (1.81)
same,"Degenerate nodules (no parasite sections or only cuticular fragments), of three nodules",[3],3
same,"Mean histopathological score, cuticle",[3],4.00
same,"Mean histopathological score, gut",[3],4.00
same,"Mean histopathological score, hypodermis",[3],4.00
same,"Mean histopathological score, longitudinal muscle",[3],4.00
same,"Mean histopathological score, pseudocoleomic cavity",[3],4.00
same,"Cumulative histopathological score, representative section","day 290, animal B0435, degenerate nodule, no parasites",16
